Results on 1 molecule are retold here after publication PMC11356819 (Molecules, 2024).

A short description of data set [1]: lipophilicity by shake-flask method (n-octanol/water or PBS). The class given is physicochemical. The settings on record: triplicate. As for the experimental part:
As a measure for the lipophilicity of the four radiolabeled probes, their partition coefficients (logP) and distribution coefficients at pH 7.4 (logD7.4) were determined by the shake-flask method. Table 1 summarizes the results of these experiments and compares them with the predicted logD7.4 values calculated using the ADMETlab platform.
A solution of the corresponding radiotracer in DMSO (1 µL) was added to a mixture of n-octanol and PBS (pH = 7.4) or water (750 µL of each) in a 2 mL Eppendorf vial and the vial was vortexed for 2 min and centrifuged for another 2 min to separate the two phases. A total of 300 µL of the upper n-octanol phase was then carefully removed from the top, while 300 µL of the aqueous phase was removed by piercing the bottom of the vial with a syringe and cannula to avoid contact with the organic phase. Both fractions were transferred into fresh vials and counted in a gamma counter to determine the ratio between the activity in the organic and the aqueous phase. All measurements were performed in triplicate and the results are expressed as mean ± standard deviation of the logarithm of the partition coefficient between n-octanol and water (logP) or the logarithm of the distribution coefficient between n-octanol and PBS (logD7.4), respectively.

The next data set relates to U87-mIDH cells. Nature of the data set: cellular uptake in U87-mIDH cells. In kind it is cell-based, human. As for the experimental part:
(§1) Consistent with this assumption, uptake of [^18F]4 and, to a lesser extent, the ^18F-fluoroethoxylated analog [^18F]5 by both cell lines was considerably higher than that of (S)-[^18F]2.
(§2) Human glioblastoma cells with a c.395G>A knock-in mutation encoding mIDH1R132H (HTB-14IG™) and the corresponding wildtype cells (HTB-14™) were purchased from the American Type Culture Collection (ATCC). The cells were grown under standard culture conditions (5% CO2 and 95% air at 37 °C) in Eagle’s Minimum Essential Medium (MEM) supplemented with 10% fetal bovine serum (FBS) and antibiotics (penicillin–streptomycin mixed solution, Gibco, Thermo Fisher Scientific, Oberhausen, Germany).
(§3) For the cellular uptake studies, 1.5 × 10^5 cells were seeded into gelatin-coated 12-well transwell plates and incubated in 1 mL MEM (without FBS and antibiotics) containing 18.5 kBq (0.5 µCi) of the corresponding radiotracer. After incubation at 21 °C for 1 h, the supernatant was collected, the cells were lysed with 40 mM NaOH and the radioactivity of both fractions was measured with a gamma counter. The total protein concentration of the cell lysate was measured by a bicinchoninic acid (BCA) assay. The radiotracer uptake was calculated as the ratio of radioactivity in the cell fraction and the supernatant and normalized by protein content (% uptake/100 µg protein). Statistical analysis of the results was performed with Originlab Pro 2023b using two-tailed t-tests with a significance level of 0.05 to identify significant differences between groups.

For another data set, the system named is U87-WT cells. Description: cellular uptake in U87-WT cells. Conditions: incubation 1 h. The class given is cell-based, human. On the procedure: as §1, §2, §3
For a further data set, the system named is U87-mIDH tumors. Description: PET imaging and 2TCM kinetic modelling of subcutaneous U87-mIDH tumors. In kind it is in vivo. The text has this: The in vivo tumor uptake and mIDH selectivity of [^18F]4 were investigated by small animal PET imaging in CB17-SCID mice bearing subcutaneous U87-WT and U87-mIDH tumors, which were implanted in the right and left shoulder region, respectively (Figure 6).
Although the use of an image-derived input function instead of an invasive arterial input function could introduce some degree of systematic bias (due to, e.g., a lack of correction for spill-over and metabolism), this should affect the parameter estimation for both tumors in a given animal in the same manner and therefore have little impact on inter-tumor comparisons.
Six male CB17-SCID mice (24–26 g) were used for the subcutaneous tumor model. Twenty-four hours before tumor implantation, the animals were injected (i.p.) with 20 µL anti-asialo GM1 rabbit (Fujifilm Wako Chemicals Europe GmbH, Neuss, Germany) in 0.9% NaCl (total volume: 100 µL) to promote tumor cell survival and growth through a temporary reduction in natural killer cell activity. For tumor inoculation, suspensions of 5 × 10^6 tumor cells in 75 µL culture medium and 75 µL Corning Matrigel (Merck, Darmstadt, Germany) were injected subcutaneously into the right (U87-WT cells) and left (U87-mIDH cells) shoulder region.
The mice were anesthetized with isoflurane (5% for induction, 2% for maintenance) in O2/air (3:7), and a catheter for tracer injection was inserted into the lateral tail vein. They were placed on an animal holder (Medres, Cologne, Germany) and fixed with a tooth bar in a respiratory mask. Body temperature was maintained at 37 °C by warming the animal bed. Eyes were protected from drying with Bepanthen eye and nose ointment (Bayer, Leverkusen, Germany). Respiratory rate was monitored and maintained at around 40–60 breaths per minute by adjusting the isoflurane concentration. A PET scan in list mode was conducted using a Focus 220 micro PET scanner (CTI-Siemens, Erlangen, Germany) with a resolution at the center of the field of view of 1.4 mm. Data acquisition started with intravenous tracer injection and ended after 120 min. This was followed by a 10 min transmission scan using a ^57Co point source for attenuation correction. After the scan was completed, the catheter was removed and the animals were allowed to wake up in their home cage. Data were histogrammed in three ways: (1) 4 × 30 min frames for visual display, (2) 28 frames (2 × 1 min, 2 × 2 min, 6 × 4 min, 18 × 5 min) for determination of time–activity curves, (3) 53 frames (12 × 10 s, 6 × 30 s, 15 × 1 min, 20 × 5 min) for kinetic modelling. Full 3D rebinning was followed by an iterative OSEM3D/MAP reconstruction algorithm with attenuation and decay correction. The resulting voxel sizes were 0.47 mm × 0.47 mm × 0.80 mm.

Take `COc1cc(NCc2cc3cc([18F])ccc3[nH]c2=O)ccc1C#N` [[^18F]4]: the logD in data set [1] (n-octanol/PBS pH 7.4, shake-flask, read-out: logD7.4 Exp. Determined) turned out to be 2.67 ± 0.04. Also, in data set [1] (n-octanol/water, shake-flask, read-out: logP), the logP turned out to be 2.5 ± 0.03. Further, the “fold higher cellular uptake than (S)-[^18F]2” value with U87-mIDH cells (U87-mIDH and U87-WT cells) was 5−8 fold. The cellular uptake with U87-mIDH cells (U87-mIDH cells, incubation 1 h) is recorded as 6.0 ± 2.0 % per 100 µg protein. Moreover, in the data set with U87-WT cells, the cellular uptake turned out to be 4.7 ± 1.4 % per 100 µg protein. In addition, in the data set with U87-mIDH tumors (0–30 min), the “SUVbw U87-mIDH” value was 31 ± 3. For the same molecule, the “SUVbw U87-mIDH” value in the data set on U87-mIDH tumors (30–60 min) was 24 ± 2. For the same molecule, the “SUVbw U87-mIDH” value in the data set with U87-mIDH tumors (60–90 min) was 18 ± 1. Besides, the “SUVbw U87-mIDH” value in the data set with U87-mIDH tumors (90–120 min) was 16 ± 1. Besides, in the data set with U87-mIDH tumors (U87-mIDH tumor, 2TCM, n = 5), the K1 is given as 0.141 ± 0.047 mL/ccm/min, the K1/k2 came out at 0.246 ± 0.063 mL/ccm, the “VS (specific distribution volume)” value stood at 0.225 ± 0.070 mL/ccm and the “VT (total distribution volume)” value is 0.471 ± 0.084 mL/ccm. Moreover, in the data set on U87-mIDH tumors (U87-mIDH tumor, 2TCM, n = 5), the k2 amounted to 0.578 ± 0.173 min⁻¹; the k3 was 0.057 ± 0.040 min⁻¹; the “k3/k4, BPND (non-displaceable binding potential)” value is on record as 0.962 ± 0.399 1/1; the k4 stood at 0.053 ± 0.023 min⁻¹. Moreover, the “max. SUVbw U87-mIDH tumors” value in the data set with U87-mIDH tumors (peak after 8 min, n = 3) is on record as 35 ± 8.

As a reminder, the logP is a log measure of how a compound divides between an organic and an aqueous phase.
